Source: ChEMBL document CHEMBL1135220, “Novel, potent non-covalent thrombin inhibitors incorporating p(3)-lactam scaffolds” (Bioorg Med Chem Lett, 2002)

How the values were obtained:
[1] = Oral bioavailability in dog (fasted); assay type: ADME, organism-based, Canis lupus familiaris; details: in vivo
Trypsin = Trypsin (Homo sapiens, UniProt P07477+P07478+P35030); assay: Inhibitory constant against trypsin determined in Vitro; assay type: protein assay
Coagulation factor X [2] = target: T1, Coagulation factor X (Homo sapiens, UniProt P00742); assay: Inhibitory constant against human Coagulation factor Xa determined in Vitro
T1 sequence (P00742 41-179 limits assumed): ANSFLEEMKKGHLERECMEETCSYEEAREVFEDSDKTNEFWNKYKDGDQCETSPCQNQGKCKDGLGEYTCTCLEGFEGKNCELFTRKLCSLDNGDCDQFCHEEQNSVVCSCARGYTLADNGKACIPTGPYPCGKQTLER
T1 sequence (P00742 235-488 limits assumed): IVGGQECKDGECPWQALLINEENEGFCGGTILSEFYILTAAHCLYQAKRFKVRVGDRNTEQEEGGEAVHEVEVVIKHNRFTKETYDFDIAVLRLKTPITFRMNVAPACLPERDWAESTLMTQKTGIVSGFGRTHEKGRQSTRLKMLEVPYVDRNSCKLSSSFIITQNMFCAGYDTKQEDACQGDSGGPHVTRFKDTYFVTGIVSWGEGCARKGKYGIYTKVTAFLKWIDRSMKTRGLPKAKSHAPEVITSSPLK

Prothrombin = Prothrombin (Homo sapiens, UniProt P00734); assay: Inhibitory constant against human thrombin (FIIa) determined in vitro
[3] = Half life in dogs at 1 mg/kg oral dosing; 35-100 min; assay type: ADME, organism-based, Canis lupus familiaris; parameters: dose 1 mg/kg, route oral; details: dog, in vivo
[4] = Maximum plasma concentration was determined in dogs at 1 mg/kg oral dosing; 0.05-0.2 ug/mL; assay type: ADME, organism-based, Canis lupus familiaris; parameters: dose 1 mg/kg, route oral; details: dog
[5] = Area Under Curve for the compound was determined in dogs at 1 mg/kg oral dosing; 25-50 ug min/mL; assay type: ADME, organism-based, Canis lupus familiaris; parameters: dose 1 mg/kg, route oral; details: dog, in vivo
Coagulation factor X [6] = target: T1, Coagulation factor X; assay: Inhibitory constant against human Coagulation factor Xa determined in Vitro; Inact. means Inactive
Serine protease 1 = Serine protease 1 (Homo sapiens, UniProt P07477); assay: Inhibitory constant against trypsin determined in Vitro; Inact. means Inactive
Chain of Serine protease 1 (P07477 whole entry): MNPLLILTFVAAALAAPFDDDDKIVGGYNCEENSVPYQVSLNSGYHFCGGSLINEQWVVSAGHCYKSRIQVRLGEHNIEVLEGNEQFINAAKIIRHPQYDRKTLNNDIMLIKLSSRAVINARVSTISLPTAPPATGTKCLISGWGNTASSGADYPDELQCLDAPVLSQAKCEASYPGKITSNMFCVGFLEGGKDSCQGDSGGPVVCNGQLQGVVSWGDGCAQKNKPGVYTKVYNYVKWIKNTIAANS

[7] = Maximum plasma concentration was determined as in dogs at 1 mg/kg oral dosing Cmax; 0.05-0.2 ug/mL; assay type: ADME, organism-based, Canis lupus familiaris; parameters: dose 1 mg/kg, route oral; details: dog

SMILES | bioavailability [1] | Ki (Trypsin) | Ki (Coagulation factor X [2]) | Ki (Prothrombin) | half-life [3] | Cmax [4] | AUC [5] | Ki (Coagulation factor X [6]) | Ki (Serine protease 1) | Cmax [7]
COC(=O)c1ccccc1CS(=O)(=O)N[C@H]1CCCCN(CC(=O)N[C@H](C=O)CCCNC(=N)N)C1=O | 67% | 16 nM | – | – | – | – | – | – | – | –
COC(=O)c1ccccc1CS(=O)(=O)N[C@H]1CCCCN(CC(=O)N[C@@H](CCCNC(=N)N)C(=O)O)C1=O | – | – | 93 nM | 0.95 nM | – | – | – | – | – | –
N=C(N)NCCC[C@@H](C=O)NC(=O)CN1CCCC[C@H](NS(=O)(=O)Cc2ccccc2)C1=O | 66% | 18 nM | – | – | – | – | – | – | – | –
N=C(N)NCCC[C@H](NC(=O)CN1CCCC[C@H](NS(=O)(=O)Cc2ccccc2)C1=O)C(=O)O | – | – | 40 nM | 0.54 nM | – | – | – | – | – | –
N=C(N)c1ccc(CC(=O)CN2CCCC[C@H](NS(=O)(=O)c3ccccc3)C2=O)cc1 | – | 8.3 nM | > 338 nM | 19.4 nM | ~35 min | ~50 ng/mL | ~417 ng·h/mL | – | – | –
N=C(N)c1ccc(CC(=O)CN2CCCC[C@H](NS(=O)(=O)c3ccc4c(c3)CCO4)C2=O)c(F)c1 | – | 7.6 nM | > 338 nM | 29.8 nM | ~35 min | ~50 ng/mL | ~417 ng·h/mL | – | – | –
N=C(N)c1ccc(CC(=O)CN2CCCC[C@H](NS(=O)(=O)c3ccc4c(c3)CCO4)C2=O)s1 | – | 5.9 nM | 52.7 nM | 0.6 nM | ~35 min | ~50 ng/mL | ~417 ng·h/mL | – | – | –
O=C(Cc1ccc2[nH]ncc2c1)CN1CCCC[C@H](NS(=O)(=O)c2ccc3c(c2)CCO3)C1=O | – | – | – | 283 nM | ~35 min | ~50 ng/mL | ~417 ng·h/mL | Not Active | Not Active | –
COc1ccc(S(=O)(=O)N[C@H]2CCCCN(CC(=O)CC3CCN(C(=N)N)CC3)C2=O)cc1OC | – | > 1678 nM | > 338 nM | 85.7 nM | ~35 min | ~50 ng/mL | ~417 ng·h/mL | – | – | –
N=C(N)N1CCC(CC(=O)[C@@H]2Cc3cccc4c3N2C(=O)[C@@H](NS(=O)(=O)c2ccc3c(c2)CCO3)CC4)CC1 | – | 2.5 nM | 49.2 nM | 10.8 nM | ~35 min | – | ~417 ng·h/mL | – | – | ~50 ng/mL
N[C@H]1CC[C@H](CC(=O)CN2CCCC[C@H](NS(=O)(=O)c3ccc4c(c3)CCO4)C2=O)CC1 | – | > 1678 nM | – | 53.2 nM | ~35 min | ~50 ng/mL | ~417 ng·h/mL | Not Active | – | –
N/C(=N\O)c1ccc(CC(=O)CN2CCCC[C@H](NS(=O)(=O)c3ccc4c(c3)CCO4)C2=O)cc1 | – | 80.5 nM | – | 240 nM | ~35 min | ~50 ng/mL | ~417 ng·h/mL | Not Active | – | –
COc1ccc(OC)c(S(=O)(=O)N[C@H]2CCCCN(CC(=O)Cc3ccc(C(=N)N)cc3)C2=O)c1 | – | 35.2 nM | > 338 nM | 9 nM | ~35 min | ~50 ng/mL | ~417 ng·h/mL | – | – | –
N=C(N)N1CCC(CC(=O)CN2CCCC[C@H](NS(=O)(=O)c3ccc4c(c3)CCO4)C2=O)CC1 | – | 872.5 nM | – | 23.8 nM | ~35 min | ~50 ng/mL | ~417 ng·h/mL | Not Active | – | –
N[C@H]1CC[C@H](CC(=O)CN2CCCC[C@H](NS(=O)(=O)Cc3ccccc3)C2=O)CC1 | – | – | – | 195 nM | ~35 min | ~50 ng/mL | ~417 ng·h/mL | Not Active | Not Active | –
Cc1nc(N)ccc1CC(=O)CN1CCCC[C@H](NS(=O)(=O)Cc2ccccc2)C1=O | – | 1678 nM | – | 92.9 nM | ~35 min | ~50 ng/mL | ~417 ng·h/mL | Not Active | – | –
N=C(N)c1ccc(CC(=O)CN2CCCC[C@H](NS(=O)(=O)Cc3ccccc3)C2=O)cc1 | – | 84.6 nM | 315 nM | 19.4 nM | ~35 min | ~50 ng/mL | ~417 ng·h/mL | – | – | –
N/C(=N\O)c1ccc(CC(=O)CN2C(=O)[C@@H](NS(=O)(=O)c3ccc4c(c3)CCO4)CCc3ccccc32)cc1 | – | – | – | > 397 nM | ~35 min | ~50 ng/mL | ~417 ng·h/mL | Not Active | Not Active | –
N=C(N)c1ccc(CC(=O)CN2C(=O)[C@@H](NS(=O)(=O)c3ccc4c(c3)CCO4)CCc3ccccc32)cc1 | – | 19.5 nM | > 338 nM | 14.4 nM | ~35 min | ~50 ng/mL | ~417 ng·h/mL | – | – | –
COc1ccc(OC)c(S(=O)(=O)N[C@H]2CCCCN(CC(=O)CC3CCN(C(=N)N)CC3)C2=O)c1 | – | – | – | 167 nM | ~35 min | ~50 ng/mL | ~417 ng·h/mL | Not Active | Not Active | –
COc1ccc(S(=O)(=O)N[C@H]2CCCCN(CC(=O)Cc3ccc(C(=N)N)cc3)C2=O)cc1OC | – | 11.6 nM | > 338 nM | 13.3 nM | ~35 min | ~50 ng/mL | ~417 ng·h/mL | – | – | –
Cc1nc(N)ccc1CC(=O)CN1CCC[C@H](NS(=O)(=O)Cc2ccccc2)C1=O | – | > 1678 nM | – | > 397 nM | ~35 min | ~50 ng/mL | ~417 ng·h/mL | Not Active | – | –
N=C(N)N1CCC(CC(=O)CN2CCCC[C@H](NS(=O)(=O)c3ccccc3)C2=O)CC1 | – | 1678 nM | > 338 nM | 71.4 nM | ~35 min | ~50 ng/mL | ~417 ng·h/mL | – | – | –
N=C(N)c1ccc(CC(=O)CN2CCCC[C@H](NS(=O)(=O)c3ccc4c(c3)CCO4)C2=O)cc1 | – | 3.2 nM | > 338 nM | 6.2 nM | ~35 min | ~50 ng/mL | ~417 ng·h/mL | – | – | –
N=C(N)c1ccc(CC(=O)CN2CCCC[C@H](NS(=O)(=O)c3ccc4ccccc4c3)C2=O)cc1 | – | 12.3 nM | > 338 nM | 163 nM | ~35 min | ~50 ng/mL | ~417 ng·h/mL | – | – | –
Cc1nc(N)ccc1CC(=O)CN1CCCC[C@H](NS(=O)(=O)c2ccc3c(c2)CCO3)C1=O | – | 1678 nM | > 338 nM | 39.5 nM | ~35 min | ~50 ng/mL | ~417 ng·h/mL | – | – | –
N=C(N)N1CCC(CC(=O)CN2C(=O)[C@@H](NS(=O)(=O)c3ccc4c(c3)CCO4)CCc3ccccc32)CC1 | – | – | – | 61 nM | ~25 min | ~50 ng/mL | ~417 ng·h/mL | Not Active | Not Active | –
